Patent US12064426B2, “Selective inhibitors of ROCK1 and ROCK2 protein kinases and uses thereof” (GENOSCO Inc., priority 2021, dated 2024)

Legend:
[1] = target: T1, Recombinant ROCK2 (amino acids 5-554) (Homo sapiens, UniProt O75116); test: ROCK inhibition assay, LANCE Ultra TR-FRET kinase assay (ROCK2); format: biochemical; settings: 4 μM ATP, 50 nM ULight-CREBtide substrate
T1 construct: ROCK2 (amino acids 5-554); by word order, ROCK2 from SignalChem
Outline: (§1)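 LANCE Ultra TR-FRET kinase assay with recombinant ROCK1 (aa 1-477) or ROCK2 (aa 5-554), 50 nM ULight-CREBtide and ATP at 1 μM (ROCK1) or 4 μM (ROCK2) in HEPES pH 7.5 with MgCl2, 1 h at room temperature. EDTA stop with Eu anti-phospho-CREB Ser133 antibody; 665/615 nm read gives IC50.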

[2] = target: T2, Recombinant ROCK1 (amino acids 1-477) (Homo sapiens, UniProt Q13464); test: ROCK inhibition assay, LANCE Ultra TR-FRET kinase assay (ROCK1); format: biochemical; settings: 1 μM ATP, 50 nM ULight-CREBtide substrate
T2 construct: Recombinant ROCK1 (amino acids 1-477); by word order, ROCK1 from Carna Biosciences
T2 sequence (Q13464 1-477): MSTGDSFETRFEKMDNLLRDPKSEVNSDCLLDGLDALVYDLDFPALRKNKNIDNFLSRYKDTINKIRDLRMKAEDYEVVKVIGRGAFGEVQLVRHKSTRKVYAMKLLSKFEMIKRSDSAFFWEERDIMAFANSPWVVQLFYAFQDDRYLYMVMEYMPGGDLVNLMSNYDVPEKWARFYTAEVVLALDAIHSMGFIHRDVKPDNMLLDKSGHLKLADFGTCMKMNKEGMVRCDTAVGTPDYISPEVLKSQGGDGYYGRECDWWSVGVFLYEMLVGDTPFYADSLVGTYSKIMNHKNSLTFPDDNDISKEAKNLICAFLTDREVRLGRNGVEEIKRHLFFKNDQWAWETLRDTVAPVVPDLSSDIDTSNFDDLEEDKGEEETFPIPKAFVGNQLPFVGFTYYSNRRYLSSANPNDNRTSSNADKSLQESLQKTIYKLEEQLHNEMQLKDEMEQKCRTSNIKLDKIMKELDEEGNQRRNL
Outline: as §1

T1 sequence (O75116 5-554): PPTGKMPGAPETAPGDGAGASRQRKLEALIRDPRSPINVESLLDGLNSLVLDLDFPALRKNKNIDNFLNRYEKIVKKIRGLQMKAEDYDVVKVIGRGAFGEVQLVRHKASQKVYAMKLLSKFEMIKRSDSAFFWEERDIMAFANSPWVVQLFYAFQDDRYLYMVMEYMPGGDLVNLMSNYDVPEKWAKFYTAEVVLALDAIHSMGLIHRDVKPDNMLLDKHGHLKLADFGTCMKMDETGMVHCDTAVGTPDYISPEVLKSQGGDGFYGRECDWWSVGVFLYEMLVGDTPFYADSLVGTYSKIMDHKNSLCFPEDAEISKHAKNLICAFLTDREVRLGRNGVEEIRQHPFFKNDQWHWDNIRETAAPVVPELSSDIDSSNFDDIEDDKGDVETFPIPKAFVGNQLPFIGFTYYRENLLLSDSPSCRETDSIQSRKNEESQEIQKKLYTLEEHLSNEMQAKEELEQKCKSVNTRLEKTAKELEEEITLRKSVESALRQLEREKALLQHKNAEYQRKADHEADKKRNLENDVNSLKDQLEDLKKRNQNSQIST

Row | SMILES | IC50 [1] | IC50 [2]
1 | Cc1n[nH]cc1-c1ccc2c(=O)n(Cc3cccc(C(=O)NCC(F)(F)F)c3)ccc2c1 [Compound 41] | 10 to 100 nM | 101 to 500 nM
2 | CC(O)c1cn(Cc2cccc(C(=O)NCCN(C)C)c2)c(=O)c2ccc(-c3c[nH]nc3Cl)cc12 (stereo not drawn) [Compound 542] | < 10 nM | < 10 nM
3 | CNC(=O)c1cccc(Cn2ccc3cc(-c4ccoc4)ccc3c2=O)c1 [Compound 302] | > 500 nM | > 501 nM
4 | CNC(=O)c1cccc(Cn2cc(CCO)c3cc(-c4cn[nH]c4Cl)ccc3c2=O)c1 [Compound 550] | < 10 nM | 11 to 100 nM
5 | [2H]C([2H])([2H])NC(=O)c1cccc(Cn2ccc3cc(-c4cn[nH]c4C(F)(F)F)ccc3c2=O)c1 [Compound 278] | < 10 nM | 11 to 100 nM
6 | C[C@H](c1cccc(C(=O)NCc2ccc(F)nc2)c1)n1cnc2cc(-c3cn[nH]c3Br)ccc2c1=O [Compound 516] | < 10 nM | < 10 nM
7 | O=C(NCC1CCN(CC(F)(F)F)CC1)c1cccc(Cn2ccc3cc(N4CCOCC4)ccc3c2=O)c1 [Compound 220] | 10 to 100 nM | 101 to 500 nM
8 | Cc1nocc1-c1ccc2c(=O)n(Cc3cc(F)cc(C(=O)N[C@H]4C[C@H](O)C4)c3)ccc2c1 [Compound 138] | 10 to 100 nM | 101 to 500 nM
9 | C[C@H](c1cccc(C(=O)Nc2ccc(F)cc2)c1)n1cnc2cc(-c3cn[nH]c3Br)ccc2c1=O [Compound 517] | < 10 nM | 11 to 100 nM
10 | CNC(=O)c1cccc(C(C)n2cc(CCO)c3cc(-c4cn[nH]c4C(F)(F)F)ccc3c2=O)c1 (stereo not drawn) [Compound 549] | < 10 nM | 11 to 100 nM
11 | Cc1nocc1-c1ccc2c(=O)n(Cc3cc(F)cc(C(=O)Nc4ccn(C)n4)c3)ccc2c1 [Compound 156] | < 10 nM | 11 to 100 nM
12 | Cc1nocc1-c1ccc2c(=O)n([C@H](C)c3cccc(C(=O)NCC4CCNCC4)c3)cnc2c1 [Compound 473] | < 10 nM | < 10 nM
13 | O=C(NCC1CCN(C2COC2)CC1)c1cc(F)cc(Cn2ccc3cc(N4CCOCC4)ccc3c2=O)c1 [Compound 228] | 10 to 100 nM | 101 to 500 nM
14 | COc1cccc(C(CN)n2cnc3cc(-c4cn[nH]c4C)ccc3c2=O)c1 (stereo not drawn) [Compound 498] | < 10 nM | < 10 nM
15 | CNC(=O)c1cccc(Cn2cc(CCO)c3cc(-c4ccnc(N)c4)ccc3c2=O)c1 [Compound 558] | 10 to 100 nM | < 10 nM
16 | C[C@H](c1cccc(C(=O)NCC2CCN(C)CC2)c1)n1cnc2cc(-c3cn[nH]c3Cl)ccc2c1=O [Compound 465] | < 10 nM | < 10 nM
17 | Cn1nccc1-c1ccc2c(=O)n(Cc3cccc(C(=O)NCCO)c3)cnc2c1 [Compound 432] | 10 to 100 nM | 101 to 500 nM
18 | [2H]C([2H])([2H])NC(=O)c1cc(F)cc(Cn2ccc3cc(-c4cn[nH]c4C(F)(F)F)ccc3c2=O)c1 [Compound 282] | < 10 nM | 11 to 100 nM
19 | COc1cccc(C(C)n2ccc3cc(-c4ccnc(N)c4)ccc3c2=O)c1 (stereo not drawn) [Compound 26] | 10 to 100 nM | 101 to 500 nM
20 | CNC(=O)c1cccc(Cn2ccc3cc(-c4cnoc4C)ccc3c2=O)c1 [Compound 301] | > 500 nM | > 501 nM
21 | COc1cccc([C@@H](CO)N2CNc3cc(-c4ccnn4C)ccc3C2=O)c1 [Compound 531] | 100 to 500 nM | > 501 nM
22 | NCC(c1cccc(Cl)c1)n1cnc2cc(-c3ccnc(F)c3)ccc2c1=O (stereo not drawn) [Compound 492, 3-(2-amino-1-(3-chlorophenyl)ethyl)-7-(2-fluoropyridin-4-yl)quinazolin-4(3H)-one] | 10 to 100 nM | 11 to 100 nM
23 | CN1CCc2cc(NC(=O)c3cccc(Cn4ccc5cc(-c6ccnc(N)c6)ccc5c4=O)c3)ccc2C1 [Compound 189] | < 10 nM | < 10 nM

Row | SMILES | IC50 [1] | IC50 [2]
24 | Nc1cc(-c2ccc3c(=O)n(Cc4cccc(C(=O)NC5COC5)c4)ccc3c2)ccn1 [Compound 195] | 10 to 100 nM | 101 to 500 nM
25 | CNC(=O)c1cc(F)cc(Cn2cnc3cc(-c4conc4C)ccc3c2=O)c1 [Compound 422] | < 10 nM | 11 to 100 nM
26 | CN(C)CCNC(=O)c1cccc(Cn2cnc3cc(-c4cn[nH]c4C(F)F)ccc3c2=O)c1 [Compound 394] | 10 to 100 nM | 11 to 100 nM
27 | Cc1n[nH]cc1-c1cc2ccn(Cc3cc(F)cc(C(=O)NC4CCOCC4)c3)c(=O)c2cn1 [Compound 253] | < 10 nM | 11 to 100 nM
28 | Cc1nocc1-c1ccc2c(=O)n(Cc3cccc(C(=O)NCC4CCN(C5COC5)CC4)c3)ccc2c1 [Compound 84] | 10 to 100 nM | 101 to 500 nM
29 | O=C(NC1CCN(C2COC2)CC1)c1cccc(Cn2ccc3cc(-c4c[nH]nc4C(F)(F)F)ccc3c2=O)c1 [Compound 48] | < 10 nM | 101 to 500 nM
30 | [2H]C([2H])([2H])NC(=O)c1cccc([C@@H](C)n2cnc3cc(-c4ccnn4C)ccc3c2=O)c1 [Compound 477] | < 10 nM | 11 to 100 nM
31 | Cc1nocc1-c1ccc2c(=O)n(Cc3cc(F)cc(C(=O)NCC4CCN(C5CC5)CC4)c3)ccc2c1 [Compound 151] | < 10 nM | 11 to 100 nM
32 | CNC(=O)c1cccc(Cn2ccc3cc(N4CC5CC(C4)O5)ccc3c2=O)c1 [Compound 330] | > 500 nM | > 501 nM
33 | CN(C)c1cccc(CNC(=O)c2cccc(Cn3cnc4cc(-c5cn[nH]c5C(F)F)ccc4c3=O)c2)c1 [Compound 400] | 10 to 100 nM | 101 to 500 nM
34 | COc1cccc(Cn2ccc3cc(-c4c[nH]nc4C(F)F)ccc3c2=O)c1 [Compound 13] | < 10 nM | 11 to 100 nM
35 | C[C@H](c1cccc(C(=O)NCc2ccc(F)nc2)c1)n1cnc2cc(-c3cn[nH]c3N)ccc2c1=O [Compound 522] | < 10 nM | < 10 nM
36 | Cn1nccc1-c1ccc2c(=O)n(Cc3cccc(C(=O)NCC4COC4)c3)cnc2c1 [Compound 431] | 10 to 100 nM | 11 to 100 nM
37 | CN1CCC(NC(=O)c2cc(F)cc(Cn3ccc4cc(-c5c[nH]nc5Cl)ncc4c3=O)c2)CC1 [Compound 261] | < 10 nM | < 10 nM
38 | Cc1n[nH]cc1-c1ccc2c(=O)n(Cc3cccc(C(=O)Nc4ccc(NS(C)(=O)=O)cc4)c3)ccc2c1 [Compound 37] | 100 to 500 nM | > 501 nM
39 | O=C(N[C@H]1CC[C@@H](O)CC1)c1cccc(Cn2ccc3cc(N4CCOCC4)ccc3c2=O)c1 [Compound 214] | 100 to 500 nM | > 501 nM
40 | Cc1nocc1-c1ccc2c(=O)n(Cc3cccc(C(=O)NCC4CCOCC4)c3)cnc2c1 [Compound 416] | < 10 nM | 11 to 100 nM
41 | CN1CCC(CNC(=O)c2cccc(Cn3ccc4cc(-c5ccnn5C)ccc4c3=O)c2)CC1 [Compound 171] | < 10 nM | 11 to 100 nM
42 | CNC(=O)c1cncc(Cn2ccc3cc(-c4conc4C)ccc3c2=O)c1 [Compound 312] | 10 to 100 nM | 101 to 500 nM
43 | CN(C)CCNC(=O)c1cccc(Cn2ccc3cc(-c4ccnn4C)ccc3c2=O)c1 [Compound 119] | < 10 nM | 11 to 100 nM
44 | Cc1n[nH]cc1-c1ccc2c(=O)n(Cc3cccc(C(=O)Nc4ccn(C)n4)c3)ccc2c1 [Compound 32] | < 10 nM | 101 to 500 nM
45 | Cc1nocc1-c1ccc2c(=O)n(Cc3cc(F)cc(C(=O)Nc4ccc5c(c4)CCNC5)c3)ccc2c1 [Compound 162] | < 10 nM | < 10 nM
